{"source": "paper PMC9297976", "about": "(Journal of Applied Toxicology, 2021)", "key": {"[1]": {"target": "T1, medaka Esr1 (mEsr1) (Oryzias latipes, UniProt P50241)", "T1 sequence (P50241 1-620)": "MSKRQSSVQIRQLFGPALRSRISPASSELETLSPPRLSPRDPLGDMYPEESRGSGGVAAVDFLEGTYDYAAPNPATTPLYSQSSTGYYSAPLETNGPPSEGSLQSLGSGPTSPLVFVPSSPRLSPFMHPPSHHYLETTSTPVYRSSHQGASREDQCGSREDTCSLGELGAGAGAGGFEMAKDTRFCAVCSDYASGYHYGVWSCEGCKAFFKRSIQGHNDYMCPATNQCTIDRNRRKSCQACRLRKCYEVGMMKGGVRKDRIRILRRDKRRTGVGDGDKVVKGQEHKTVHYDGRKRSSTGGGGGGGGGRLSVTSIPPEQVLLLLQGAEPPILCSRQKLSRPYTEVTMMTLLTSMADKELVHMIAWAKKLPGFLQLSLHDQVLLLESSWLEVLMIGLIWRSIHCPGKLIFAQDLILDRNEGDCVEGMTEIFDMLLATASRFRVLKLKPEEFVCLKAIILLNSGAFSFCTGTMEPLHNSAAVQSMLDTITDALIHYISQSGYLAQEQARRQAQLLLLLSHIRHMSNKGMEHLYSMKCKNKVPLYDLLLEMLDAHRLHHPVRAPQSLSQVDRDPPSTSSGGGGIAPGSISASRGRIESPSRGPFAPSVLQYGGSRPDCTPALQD", "test": "cell-based", "design": "species or system Japanese medaka (Oryzias latipes)", "details": "MAC = 1.0 × 10^−4 M"}, "[2]": {"target": "T1, medaka Esr1 (mEsr1)", "test": "Medaka Esr1 reporter gene assay, antagonist assay", "assay_type": "cell-based, Japanese medaka (Oryzias latipes)"}, "[3]": {"target": "T2, medaka ARβ (mArβ) (Oryzias latipes, UniProt D1MV73)", "T2 sequence (D1MV73 1-744)": "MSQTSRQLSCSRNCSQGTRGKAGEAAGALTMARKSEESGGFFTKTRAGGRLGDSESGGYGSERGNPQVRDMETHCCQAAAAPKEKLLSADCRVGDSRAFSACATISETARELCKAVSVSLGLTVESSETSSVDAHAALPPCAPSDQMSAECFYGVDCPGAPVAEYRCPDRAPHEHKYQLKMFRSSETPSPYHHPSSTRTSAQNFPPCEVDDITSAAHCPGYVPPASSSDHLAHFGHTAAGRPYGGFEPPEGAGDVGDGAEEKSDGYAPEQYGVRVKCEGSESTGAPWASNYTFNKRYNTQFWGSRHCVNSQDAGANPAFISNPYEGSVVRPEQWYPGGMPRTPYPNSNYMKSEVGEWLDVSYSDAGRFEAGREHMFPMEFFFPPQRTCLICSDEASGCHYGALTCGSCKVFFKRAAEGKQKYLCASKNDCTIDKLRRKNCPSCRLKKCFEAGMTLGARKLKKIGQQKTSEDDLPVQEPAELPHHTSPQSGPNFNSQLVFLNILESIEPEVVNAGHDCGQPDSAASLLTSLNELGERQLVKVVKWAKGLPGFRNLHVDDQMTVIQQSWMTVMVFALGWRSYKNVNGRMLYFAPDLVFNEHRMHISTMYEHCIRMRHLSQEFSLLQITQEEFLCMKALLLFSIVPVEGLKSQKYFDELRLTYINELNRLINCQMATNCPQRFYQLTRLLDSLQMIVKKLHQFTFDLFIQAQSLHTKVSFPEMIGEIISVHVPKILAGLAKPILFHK", "test": "Medaka ARβ reporter gene assay, agonist assay", "assay_type": "cell-based, Japanese medaka (Oryzias latipes)", "details": "MAC = 1.0 × 10^−4 M"}, "[4]": {"target": "T2, medaka ARβ (mArβ)", "test": "Medaka ARβ reporter gene assay, antagonist assay", "assay_type": "cell-based, Japanese medaka (Oryzias latipes)", "details": "11‐KT spiked at 50 nM (D); MAC = 1.0 × 10^−4 M"}, "[5]": {"system": "Japanese medaka (Oryzias latipes)", "test": "Fish Short‐Term Reproduction Assay", "assay_type": "in vivo", "details": "for GSI Female / GSI Male / HSI Female / HSI Male / Length Female / Length Male / Weight Female / Weight Male: completion of exposure"}, "[6]": {"details": "measured concentration 0.349 mg/L"}, "[7]": {"details": "measured concentration 1.02 mg/L"}}, "data": [{"compound": "CCNc1nc(Cl)nc(NC(C)(C)C#N)n1", "note": "[CZ, Cyanazine]", "values": [{"measurement": "Agonistic activity", "setting": "[1]", "result": "NE (MAC = 1.0 × 10^−4 M)"}, {"measurement": "IC50", "setting": "[2]", "result": 0.61, "unit": "µM"}, {"measurement": "Antagonistic activity on mEsr1 (in words)", "setting": "[2]; antagonist assays", "result": "inhibited the transcriptional activity on mEsr1 by E2"}, {"measurement": "In vitro positive: aEsr", "setting": "[2]; mode of action in which IC50 or IC30 was obtained in RGA", "result": "aEsr"}, {"measurement": "Agonistic activity", "setting": "[3]", "result": "NE (MAC = 1.0 × 10^−4 M)"}, {"measurement": "Antagonistic activity", "setting": "[4]", "result": "NE (MAC = 1.0 × 10^−4 M)^(D)"}, {"measurement": "Fertility rate", "setting": "[5]; 0.349 mg/L measured, 21 d", "result": "80 ± 19", "unit": "%"}, {"measurement": "Hepatic VTG, female", "setting": "[5]; 0.349 mg/L measured, 21 d", "result": "2,550 ± 896 ng/mg‐liver"}, {"measurement": "Hepatic VTG, male", "setting": "[5]; 0.349 mg/L measured, 21 d", "result": "0.5 ± 0.0", "unit": "ng/mg‐liver"}, {"measurement": "Mortality", "setting": "[5]; 0.349 mg/L measured, 21 d", "result": 4.2, "unit": "%"}, {"measurement": "Mortality, number of dead fish", "setting": "[5]; 0.349 mg/L measured, 21 d", "result": 1}, {"measurement": "Number of fertilized eggs (per female per day)", "setting": "[5]; 0.349 mg/L measured, 21 d", "result": "12 ± 5.8"}, {"measurement": "Number of total eggs (per female per day)", "setting": "[5]; 0.349 mg/L measured, 21 d", "result": "14 ± 5.1"}, {"measurement": "SSC female (joint plates with papillary processes)", "setting": "[5]; 0.349 mg/L measured, 21 d", "result": "0 ± 0"}, {"measurement": "SSC male (joint plates with papillary processes)", "setting": "[5]; 0.349 mg/L measured, 21 d", "result": "96 ± 5.9"}, {"measurement": "Fertility rate", "setting": "[5]; 1.02 mg/L measured, 21 d", "result": "71 ± 20", "unit": "%"}, {"measurement": "Hepatic VTG, female", "setting": "[5]; 1.02 mg/L measured, 21 d", "result": "2,860 ± 679 ng/mg‐liver"}, {"measurement": "Hepatic VTG, male", "setting": "[5]; 1.02 mg/L measured, 21 d", "result": "0.5 ± 0.0", "unit": "ng/mg‐liver"}, {"measurement": "Mortality", "setting": "[5]; 1.02 mg/L measured, 21 d", "result": 8.3, "unit": "%"}, {"measurement": "Mortality, number of dead fish", "setting": "[5]; 1.02 mg/L measured, 21 d", "result": 2}, {"measurement": "SSC female (joint plates with papillary processes)", "setting": "[5]; 1.02 mg/L measured, 21 d", "result": "0 ± 0"}, {"measurement": "SSC male (joint plates with papillary processes)", "setting": "[5]; 1.02 mg/L measured, 21 d", "result": "94 ± 23"}, {"measurement": "Change of hepatic VTG levels in females (in words)", "setting": "[5]; 21 d", "result": "did not reduce"}, {"measurement": "Fecundity, number of total eggs (in words)", "setting": "[5]; 21 d", "result": "statistically significant decrease"}, {"measurement": "LOECREPRO", "setting": "[5]; LOEC on reproduction (fecundity and/or fertility)", "result": "1,020 μg/L"}, {"measurement": "minimal effective concentration", "setting": "[5]; Oryzias latipes, 504 h, read-out: LOECmVTG", "result": "> 1.02", "unit": "µg/mL"}, {"measurement": "Fertility rate (in words)", "setting": "[5]; chemicals with significant decrease of number of total eggs", "result": "no significant effect"}, {"measurement": "LOECREPRO (reduction in fecundity or fertility)", "setting": "[5]; concentrations without overt toxicity", "result": "1,020 μg/L"}, {"measurement": "LOECTOX", "setting": "[5]; lowest observed effect concentration on mortality", "result": "ND (>1,020) μg/L"}, {"measurement": "GSI Female", "setting": "[5]; [6]", "result": "8.3 ± 0.9", "unit": "%"}, {"measurement": "GSI Male", "setting": "[5]; [6]", "result": "0.67 ± 0.11", "unit": "%"}, {"measurement": "HSI Female", "setting": "[5]; [6]", "result": "3.4 ± 0.69", "unit": "%"}, {"measurement": "HSI Male", "setting": "[5]; [6]", "result": "1.8 ± 0.18", "unit": "%"}, {"measurement": "Length Female", "setting": "[5]; [6]", "result": "35.8 ± 1.0", "unit": "mm"}, {"measurement": "Length Male", "setting": "[5]; [6]", "result": "35.3 ± 1.1", "unit": "mm"}, {"measurement": "Weight Female", "setting": "[5]; [6]", "result": "515 ± 28", "unit": "mg"}, {"measurement": "Weight Male", "setting": "[5]; [6]", "result": "483 ± 50", "unit": "mg"}, {"measurement": "GSI Female", "setting": "[5]; [7]", "result": "7.6 ± 0.9", "unit": "%"}, {"measurement": "GSI Male", "setting": "[5]; [7]", "result": "0.55 ± 0.08", "unit": "%"}, {"measurement": "HSI Female", "setting": "[5]; [7]", "result": "3.5 ± 0.33", "unit": "%"}, {"measurement": "HSI Male", "setting": "[5]; [7]", "result": "1.7 ± 0.14", "unit": "%"}, {"measurement": "Length Female", "setting": "[5]; [7]", "result": "35.0 ± 1.0", "unit": "mm"}, {"measurement": "Length Male", "setting": "[5]; [7]", "result": "34.4 ± 0.8", "unit": "mm"}, {"measurement": "Weight Female", "setting": "[5]; [7]", "result": "470 ± 49", "unit": "mg"}, {"measurement": "Weight Male", "setting": "[5]; [7]", "result": "419 ± 40", "unit": "mg"}]}]}
